Source: patent US5324648A, “Substituted isocoumarins as serine protease inhibitors and anti-inflammatory agents” (Georgia Tech Research Corporation, priority 1992, dated 1994)

Columns and labels:
cathepsin G = biological target: T1, cathepsin G (Homo sapiens, UniProt P08311); experiment: Inactivation of cathepsin G; type: biochemical; conditions: Table XIII; [I] 75-400 μM
T1 construct: from tissue; host or cells: human leukocytes
T1 sequence (P08311 21-255): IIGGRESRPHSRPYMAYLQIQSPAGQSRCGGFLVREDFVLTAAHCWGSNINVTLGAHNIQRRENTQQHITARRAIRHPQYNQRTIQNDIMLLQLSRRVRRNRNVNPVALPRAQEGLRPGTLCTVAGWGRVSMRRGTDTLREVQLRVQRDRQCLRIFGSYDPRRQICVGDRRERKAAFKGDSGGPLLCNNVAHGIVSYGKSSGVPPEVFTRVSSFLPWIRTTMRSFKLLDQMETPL

rat granule chymase [1] = experiment: Reactivation of inhibited rat granule chymase; type: biochemical; conditions: [I] 39 μM; +NH2OH 0.36M
Procedure: (§1) ^a Inhibition was performed at 0.1M Hepes, 0.5M NaCl, pH 7.5 buffer,
(§2) 10% Me2 SO and 25° C. Reactivation was carried out in the
presence of 0.36M of NH2 OH, and occurred immediately after the […]

chymotrypsin [2] = biological target: T2, chymotrypsin (Bos taurus, UniProt P00766); experiment: Inactivation of chymotrypsin; type: biochemical, bovine; conditions: Table XIII; pH 7.5, 25° C; [I] 20-400 μM; read-out: kobs/[I]
chymotrypsin [3] = biological target: T2, chymotrypsin; experiment: Reactivation of inhibited chymotrypsin; type: biochemical, bovine
Procedure: as §1, §2
presence of 0.36M of NH2 OH, and occurred immediately after the
^b Enzyme activity was measured after two days.

rat granule chymase [4] = experiment: Inhibition of rat granule chymase; type: biochemical; conditions: Table XIV; [I] 0.078 mM; not time dependent
Procedure: (§3) ^a Inhibition was measured at 0.1M Hepes, 0.5M NaCl, pH 7.5 buffer,
(§4) 10% Me2 SO and 25° C. Suc--Phe--Leu--PheSBzl (0.14 mM) and
(§5) ZGly--ArgSBzl (0.06 mM) were used to measure chymase and tryptase activit

rat granule tryptase = experiment: Inhibition of rat granule tryptase; type: biochemical; conditions: Table XIV; [I] 0.078 mM
Procedure: as §3, §4, §5

inhibition (cathepsin G): 13%
% of Enzyme Activity Reactivated (rat granule chymase [1]): 30-50%
kinact/KI (chymotrypsin [2]): 1080 M⁻¹ s⁻¹
% of Enzyme Activity Reactivated (chymotrypsin [3]; [I] 39 μM, +NH2OH 0.36M): 50%
% of Enzyme Activity Reactivated (chymotrypsin [3]; [I] 39 μM, in buffer, after two days): 6%
% of Enzyme Activity Reactivated (chymotrypsin [3]; [I] 78 μM, +NH2OH 0.36M): 40%
% of Enzyme Activity Reactivated (chymotrypsin [3]; [I] 78 μM, in buffer, after two days): 0%
% of inhibition (rat granule chymase [4]): 30-50%
kobs/[I] (rat granule tryptase): 6 to 12 M⁻¹ s⁻¹
SMILES: O=C(CCCC[C@@H]1SC[C@@H]2NC(=O)N[C@@H]21)NCCCCCC(=O)Nc1ccc2c(Cl)c(OCCc3ccccc3)oc(=O)c2c1 [7-(6-biotinylaminocaproyl)amino-4-chloro-3-(2-phenylethoxy)isocoumarin]
